Experiments:
[1] = test system: velvetleaf; test: Test A pre-/postemergence herbicide test; assay type: in vivo, Abutilon theophrasti
Method in brief: (§1)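 Visual injury rating on a 0–100 scale (0 no effect, 100 complete control) versus untreated controls, about ten days after treatment in greenhouse. Pre: directed soil spray onto seeded sandy loam. Post: spray to runoff on plants 2–10 cm tall at one- to two-leaf stage.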

[2] = test system: rice; test: Test B pre-/postemergence herbicide test; assay type: in vivo, Oryza sativa; conditions: 0 = no effect, 100 = complete control, preemergence
Method in brief: (§2)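 Formulation: non-phytotoxic solvent mix with surfactant. Timing: preemergence on seed and postemergence on 2–18 cm plants, applied concurrently. Readout after 13–15 d greenhouse: visual 0–100 control rating against controls.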

[3] = test system: small flower umbrella sedge; test: Test B flooded paddy test; assay type: in vivo, Cyperus difformis; conditions: 1000 g ai/ha, visual rating, scale 0 to 100 (0 no effect, 100 complete control), 13 to 15 days
Method in brief: (§3)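 Formulated test chemicals went onto postemergence plants measuring 2 to 18 cm, at one to four leaves. For the paddy assay, species had reached two leaves. Scoring took place 13–15 days later by eye, relative to untreated plants, using 0 for no effect up to 100 for full control.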

[4] = test system: wild oat; test: Test B postemergence herbicide test; assay type: in vivo, Avena fatua; conditions: postemergence, visual rating, scale 0 (no effect) to 100 (complete control)
Method in brief: as §3

[5] = test system: barnyardgrass; test: Test B flooded paddy test; assay type: in vivo, Echinochloa crus-galli; conditions: 1000 g ai/ha, visual rating, scale 0 to 100 (0 no effect, 100 complete control), 13 to 15 days
Method in brief: as §3

[6] = test system: barnyardgrass; test: Test A pre-/postemergence herbicide test; assay type: in vivo, Echinochloa crus-galli
Method in brief: as §1

[7] = test system: morningglory; test: Test A pre-/postemergence herbicide test; assay type: in vivo, Ipomoea spp.
Method in brief: as §1

[8] = test system: ducksalad; test: Test B flooded paddy test; assay type: in vivo, Heteranthera limosa; conditions: 1000 g ai/ha, visual rating, scale 0 to 100 (0 no effect, 100 complete control), 13 to 15 days
Method in brief: as §3

[9] = test system: wheat; test: Test B postemergence herbicide test; assay type: in vivo, Triticum aestivum; design: key to Wheat plant response rating: 0 = no effect, 100 = complete control; conditions: postemergence, visual rating, scale 0 (no effect) to 100 (complete control)
Method in brief: as §3

[10] = test system: Surinam grass; test: Test B pre-/postemergence herbicide test; assay type: in vivo, Urochloa decumbens; conditions: for Surinam Grass plant response rating: postemergence, scale 0 (no effect) to 100 (complete control)
Method in brief: as §2

[11] = test system: lambsquarters; test: Test B pre-/postemergence herbicide test; assay type: in vivo, Chenopodium album; conditions: for Lambsquarters plant response rating: postemergence, scale 0 (no effect) to 100 (complete control)
Method in brief: as §2

[12] = test system: corn; test: Test B pre-/postemergence herbicide test; assay type: in vivo, Zea mays; conditions: for Corn plant response rating: postemergence, scale 0 (no effect) to 100 (complete control)
Method in brief: as §2

[13] = test system: rice; test: Test B flooded paddy test; assay type: in vivo, Oryza sativa; conditions: 1000 g ai/ha, visual rating, scale 0 to 100 (0 no effect, 100 complete control), 13 to 15 days
Method in brief: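 Scale 0–100: zero equals no visible effect, 100 complete control, judged by eye relative to controls. Timing: 13 to 15 days in greenhouse post-treatment. Growth stage at spraying: two leaves (paddy) or one to four leaves, 2–18 cm (postemergence).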

[14] = test system: large crabgrass; test: Test B pre-/postemergence herbicide test; assay type: in vivo, Digitaria sanguinalis; conditions: for Crabgrass, Large plant response rating: postemergence, scale 0 (no effect) to 100 (complete control)
Method in brief: as §2

[15] = test system: velvetleaf; test: Test B pre-/postemergence herbicide test; assay type: in vivo, Abutilon theophrasti; conditions: for Velvetleaf plant response rating: postemergence, scale 0 (no effect) to 100 (complete control)
Method in brief: as §2

[16] = test system: giant foxtail; test: Test A pre-/postemergence herbicide test; assay type: in vivo, Setaria faberi
Method in brief: as §1

[17] = test system: blackgrass; test: Test B postemergence herbicide test; assay type: in vivo, Alopecurus myosuroides; conditions: postemergence, visual rating, scale 0 (no effect) to 100 (complete control)
Method in brief: as §3

[18] = test system: morningglory; test: Test B pre-/postemergence herbicide test; assay type: in vivo, Ipomoea coccinea; conditions: for Morningglory plant response rating: postemergence, scale 0 (no effect) to 100 (complete control)
Method in brief: (§4)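 Plants compared with untreated controls 13–15 days post-treatment and given a visual 0–100 injury score. Applications: preemergence to seeds; postemergence at 1- to 4-leaf (2–18 cm); paddy species flooded, 2-leaf stage. Vehicle non-phytotoxic, surfactant included.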

[19] = test system: cocklebur; test: Test B pre-/postemergence herbicide test; assay type: in vivo, Xanthium strumarium; conditions: for Cocklebur plant response rating: postemergence, scale 0 (no effect) to 100 (complete control)
Method in brief: as §4

[20] = test system: large crabgrass; test: Test A pre-/postemergence herbicide test; assay type: in vivo, Digitaria sanguinalis
Method in brief: as §1

[21] = test system: giant foxtail; test: Test B pre-/postemergence herbicide test; assay type: in vivo, Setaria faberi; conditions: for Foxtail, Giant plant response rating: postemergence, scale 0 (no effect) to 100 (complete control)
Method in brief: as §2

[22] = test system: pigweed; test: Test B pre-/postemergence herbicide test; assay type: in vivo, Amaranthus retroflexus; conditions: for Pigweed plant response rating: postemergence, scale 0 (no effect) to 100 (complete control)
Method in brief: as §2

[23] = test system: redroot pigweed; test: Test A pre-/postemergence herbicide test; assay type: in vivo, Amaranthus retroflexus
Method in brief: as §1

[24] = test system: barnyardgrass; test: Test B pre-/postemergence herbicide test; assay type: in vivo, Echinochloa crus-galli; conditions: for Barnyardgrass plant response rating: postemergence, scale 0 (no effect) to 100 (complete control)
Method in brief: as §4

[25] = Postemergence, 500 g ai/ha, 0 to 100 scale, 0 no effect, 100 complete control
[26] = Postemergence, 2000 g ai/ha, 0 to 100 scale, 0 no effect, 100 complete control
[27] = Preemergence, 2000 g ai/ha, visual rating, 0 to 100 scale (0 no effect, 100 complete control)
[28] = preemergence, 500 g ai/ha, visual injury, 0 to 100 scale (0 no effect, 100 complete control)
[29] = 125 g ai/ha, 0 = no effect, 100 = complete control, preemergence
[30] = 500 g ai/ha, visual rating, 0 = no effect, 100 = complete control, preemergence

CCc1nc(C(C)(C)C)sc1C(=O)Nc1cccc(C(=O)N(CC)CC)n1 [Compound 214]
Velvetleaf plant response rating [1, 25]: 15 | Plant response rating, Velvetleaf [1, 26]: 20 | Velvetleaf plant response rating [1, 27]: 20 | Velvetleaf plant response rating [1, 28]: 5 | Rice plant response rating (0 to 100 scale) ([2]; 125 g ai/ha): 0 | Plant response rating, Rice ([2]; 500 g ai/ha, visual rating): 0 | Sedge, Umbrella plant response rating [3]: 50 | Oat, Wild plant response rating ([4]; 125 g ai/ha): 0 | Oat, Wild plant response rating ([4]; 500 g ai/ha): 0 | Barnyardgrass plant response rating [5]: 0 | Barnyardgrass plant response rating [6, 25]: 0 | Plant response rating, Barnyardgrass [6, 26]: 15 | Barnyardgrass plant response rating [6, 27]: 30 | Barnyardgrass plant response rating [6, 28]: 0 | Morningglory plant response rating [7, 25]: 0 | Plant response rating, Morningglory [7, 26]: 10 | Morningglory plant response rating [7, 27]: 30 | Morningglory plant response rating [7, 28]: 5 | Ducksalad plant response rating [8]: 30 | Wheat plant response rating ([9]; 125 g ai/ha): 0 | Wheat plant response rating ([9]; 500 g ai/ha): 0 | Surinam Grass plant response rating (0 to 100 scale) [10, 29]: 0 | Plant response rating, Surinam Grass [10, 30]: 30 | Surinam Grass plant response rating ([10]; 125 g ai/ha, visual rating): 0 | Surinam Grass plant response rating ([10]; 500 g ai/ha, visual rating): 10 | Lambsquarters plant response rating (0 to 100 scale) [11, 29]: 0 | Plant response rating, Lambsquarters [11, 30]: 80 | Lambsquarters plant response rating ([11]; 125 g ai/ha, visual rating): 0 | Lambsquarters plant response rating ([11]; 500 g ai/ha, visual rating): 0 | Corn plant response rating (0 to 100 scale) [12, 29]: 0 | Plant response rating, Corn [12, 30]: 0 | Corn plant response rating ([12]; 125 g ai/ha, visual rating): 0 | Corn plant response rating ([12]; 500 g ai/ha, visual rating): 20 | Rice plant response rating [13]: 0 | Crabgrass, Large plant response rating (0 to 100 scale) [14, 29]: 0 | Plant response rating, Crabgrass, Large [14, 30]: 70 | Crabgrass, Large plant response rating ([14]; 125 g ai/ha, visual rating): 0 | Crabgrass, Large plant response rating ([14]; 500 g ai/ha, visual rating): 0 | Velvetleaf plant response rating (0 to 100 scale) [15, 29]: 0 | Plant response rating, Velvetleaf [15, 30]: 0 | Velvetleaf plant response rating ([15]; 125 g ai/ha, visual rating): 0 | Velvetleaf plant response rating ([15]; 500 g ai/ha, visual rating): 10 | Foxtail, Giant plant response rating [16, 25]: 15 | Plant response rating, Foxtail, Giant [16, 26]: 40 | Foxtail, Giant plant response rating [16, 27]: 55 | Foxtail, Giant plant response rating [16, 28]: 60 | Blackgrass plant response rating ([17]; 125 g ai/ha): 0 | Blackgrass plant response rating ([17]; 500 g ai/ha): 0 | Morningglory plant response rating (0 to 100 scale) [18, 29]: 0 | Plant response rating, Morningglory [18, 30]: 0 | Morningglory plant response rating ([18]; 125 g ai/ha, visual rating): 0 | Morningglory plant response rating ([18]; 500 g ai/ha, visual rating): 0 | Cocklebur plant response rating (0 to 100 scale) [19, 29]: 0 | Plant response rating, Cocklebur [19, 30]: 0 | Cocklebur plant response rating ([19]; 125 g ai/ha, visual rating): 0 | Cocklebur plant response rating ([19]; 500 g ai/ha, visual rating): 0 | Crabgrass, Large plant response rating [20, 25]: 5 | Plant response rating, Crabgrass, Large [20, 26]: 10 | Crabgrass, Large plant response rating [20, 27]: 65 | Crabgrass, Large plant response rating [20, 28]: 55 | Foxtail, Giant plant response rating (0 to 100 scale) [21, 29]: 0 | Plant response rating, Foxtail, Giant [21, 30]: 90 | Foxtail, Giant plant response rating ([21]; 125 g ai/ha, visual rating): 0 | Foxtail, Giant plant response rating ([21]; 500 g ai/ha, visual rating): 20 | Pigweed plant response rating (0 to 100 scale) [22, 29]: 0 | Plant response rating, Pigweed [22, 30]: 100 | Pigweed plant response rating ([22]; 125 g ai/ha, visual rating): 0 | Pigweed plant response rating ([22]; 500 g ai/ha, visual rating): 0 | Pigweed plant response rating [23, 25]: 20 | Plant response rating, Pigweed [23, 26]: 50 | Pigweed plant response rating [23, 27]: 95 | Pigweed plant response rating [23, 28]: 20 | Barnyardgrass plant response rating (0 to 100 scale) [24, 29]: 0 | Plant response rating, Barnyardgrass [24, 30]: 20 | Barnyardgrass plant response rating ([24]; 125 g ai/ha, visual rating): 0 | Barnyardgrass plant response rating ([24]; 500 g ai/ha, visual rating): 0
